# Experimental data reported in article PMC6409085, “Three odorant-binding proteins are involved in the behavioral response of Sogatella furcifera to rice plant volatiles” (PeerJ, 2019).
# “And” between values parts separate entries of the source, which are not always exact repeats. Equal entries are not always repeated.
# Key:
# [1] = target: SfurOBP2 (Sogatella furcifera, UniProt V5T759); experiment: biochemical; type: binding
# In short: (§1)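 K1-NPN came from titrating 2.0 µM protein (50 mM Tris-HCl, pH 7.4) with 1-NPN. Odorants at 2-20 µM then competed against 2.0 µM protein plus 2.0 µM 1-NPN for 2 min, with excitation at 337 nm and emission recorded over 390-490 nm. IC50 values were converted to Ki via Ki = IC50/(1 + [1-NPN]/K1-NPN).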
# [2] = target: SfurOBP11 (Sogatella furcifera, UniProt V5T6E3); experiment: biochemical; type: binding
# Sequence of SfurOBP11 (V5T6E3 entry or part of it): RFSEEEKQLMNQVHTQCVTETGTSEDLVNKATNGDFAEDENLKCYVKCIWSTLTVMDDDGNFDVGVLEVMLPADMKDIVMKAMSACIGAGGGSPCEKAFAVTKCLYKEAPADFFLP
# In short: as §1
# [3] = target: SfurOBP1 (Sogatella furcifera, UniProt V5T8N5); experiment: biochemical; type: binding; conditions: for Fluorescence competitive binding assay, fluorescence intensity: OBP1, three replicate columns
# Sequence of SfurOBP1 (V5T8N5 entry or part of it): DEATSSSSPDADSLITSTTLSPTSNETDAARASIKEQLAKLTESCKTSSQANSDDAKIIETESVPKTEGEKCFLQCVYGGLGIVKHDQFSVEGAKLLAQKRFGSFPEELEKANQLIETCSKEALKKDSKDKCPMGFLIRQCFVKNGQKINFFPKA
# In short: as §1
# [4] = target: SfurOBP3 (Sogatella furcifera, UniProt V5T818); experiment: biochemical; type: binding; conditions: for Fluorescence competitive binding assay, fluorescence intensity: OBP3, three replicate columns
# Sequence of SfurOBP3 (V5T818 entry or part of it): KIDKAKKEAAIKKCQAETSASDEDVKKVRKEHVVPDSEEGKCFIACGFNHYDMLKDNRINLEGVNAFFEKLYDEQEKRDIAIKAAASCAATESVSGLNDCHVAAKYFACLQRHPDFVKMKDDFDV
# In short: as §1
# [5] = tested on: S. furcifera adults; experiment: Y-tube olfactometer behavioral trials; type: in vivo, Sogatella furcifera; conditions: odorant 50 µL/L vs hexane; adults
# Method: To test the effect of the rice odorants on the behavior of S. furcifera adults, a glass Y-tube olfactometer (inner diameter 2.0 cm, stem 13 cm, arms 10 cm, angle of arms 60°) according to the previously described ([Wang et al., 2014b]) was employed. An airtight cubic box (70 by 45 by 30 cm) was used to position Y-tube, and the Y-tube was lighted by a 30-W filament lamp 25 cm above it. Air that filtered through activated charcoal and humidified with doubly distilled water was pumped in both arms at a flow rate of 300 mL/min. Two filter paper strips (10 by 1 cm) containing 100 µL odorant source (50 µL/L) and 100 µL control hexane were placed in two holding chambers in the front of the olfactometer, respectively. A S. furcifera adult (2 days after emergence, starved for 0.5 h) was randomly chosen and placed in the stem of the Y-tube. Each insect was given 10 min to choose between the two arms of the Y-tube, the choice was noted if the planthopper reached one-half of the arms’ lengths and stayed in the arm for more than 1 min. Besides, S. furcifera was considered as having no orientation preference. Forty-five individuals were used for each compound, each insect used only once. And the dual-choice experiment was done in an environmentally controlled room (25 ± 1 °C and 50% RH). A Chi-squared test was used to analyze the behavioral assay data by using SPSS19.0 (SPSS Inc., Chicago, IL, USA) software.
# Sequence of SfurOBP2 (V5T759 entry or part of it): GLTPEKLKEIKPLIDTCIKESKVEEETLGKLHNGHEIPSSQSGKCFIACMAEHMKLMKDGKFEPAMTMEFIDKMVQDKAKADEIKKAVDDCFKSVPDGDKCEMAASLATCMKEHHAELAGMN
smiles,measurement,setting,value
CCCCCCCCC=O [nonanal],IC50,"[1]; SfurOBP2, protein and 1-NPN both 2.0 µM, competitor 2-20 µM, read-out: IC50",> 20 µM
same,"Fluorescence competitive binding assay, OBP2 (raw fluorescence reading)","[1]; ligand concentration 2 (unit not given), replicate column 1 of 3",22495
same,"Fluorescence competitive binding assay, OBP2 (raw fluorescence reading)","[1]; ligand concentration 2 (unit not given), replicate column 2 of 3",22840
same,"Fluorescence competitive binding assay, OBP2 (raw fluorescence reading)","[1]; ligand concentration 2 (unit not given), replicate column 3 of 3",21233
same,"Fluorescence competitive binding assay, OBP2 (raw fluorescence reading)","[1]; ligand concentration 4 (unit not given), replicate column 1 of 3",23391
same,"Fluorescence competitive binding assay, OBP2 (raw fluorescence reading)","[1]; ligand concentration 4 (unit not given), replicate column 2 of 3",22604
same,"Fluorescence competitive binding assay, OBP2 (raw fluorescence reading)","[1]; ligand concentration 4 (unit not given), replicate column 3 of 3",23347
same,"Fluorescence competitive binding assay, OBP2 (raw fluorescence reading)","[1]; ligand concentration 6 (unit not given), replicate column 1 of 3",22973
same,"Fluorescence competitive binding assay, OBP2 (raw fluorescence reading)","[1]; ligand concentration 6 (unit not given), replicate column 2 of 3",22972
same,"Fluorescence competitive binding assay, OBP2 (raw fluorescence reading)","[1]; ligand concentration 6 (unit not given), replicate column 3 of 3",22119
same,"Fluorescence competitive binding assay, OBP2 (raw fluorescence reading)","[1]; ligand concentration 8 (unit not given), replicate column 1 of 3",20829
same,"Fluorescence competitive binding assay, OBP2 (raw fluorescence reading)","[1]; ligand concentration 8 (unit not given), replicate column 2 of 3",21110
same,"Fluorescence competitive binding assay, OBP2 (raw fluorescence reading)","[1]; ligand concentration 8 (unit not given), replicate column 3 of 3",19166
same,"Fluorescence competitive binding assay, OBP2 (raw fluorescence reading)","[1]; ligand concentration 10 (unit not given), replicate column 1 of 3",18739
same,"Fluorescence competitive binding assay, OBP2 (raw fluorescence reading)","[1]; ligand concentration 10 (unit not given), replicate column 2 of 3",19572
same,"Fluorescence competitive binding assay, OBP2 (raw fluorescence reading)","[1]; ligand concentration 10 (unit not given), replicate column 3 of 3",20059
same,"Fluorescence competitive binding assay, OBP2 (raw fluorescence reading)","[1]; ligand concentration 12 (unit not given), replicate column 1 of 3",18220
same,"Fluorescence competitive binding assay, OBP2 (raw fluorescence reading)","[1]; ligand concentration 12 (unit not given), replicate column 2 of 3",17338
same,"Fluorescence competitive binding assay, OBP2 (raw fluorescence reading)","[1]; ligand concentration 12 (unit not given), replicate column 3 of 3",19313
same,"Fluorescence competitive binding assay, OBP2 (raw fluorescence reading)","[1]; ligand concentration 14 (unit not given), replicate column 1 of 3",18807
same,"Fluorescence competitive binding assay, OBP2 (raw fluorescence reading)","[1]; ligand concentration 14 (unit not given), replicate column 2 of 3",18093
same,"Fluorescence competitive binding assay, OBP2 (raw fluorescence reading)","[1]; ligand concentration 14 (unit not given), replicate column 3 of 3",18015
same,"Fluorescence competitive binding assay, OBP2 (raw fluorescence reading)","[1]; ligand concentration 16 (unit not given), replicate column 1 of 3",15898
same,"Fluorescence competitive binding assay, OBP2 (raw fluorescence reading)","[1]; ligand concentration 16 (unit not given), replicate column 2 of 3",17144
same,"Fluorescence competitive binding assay, OBP2 (raw fluorescence reading)","[1]; ligand concentration 16 (unit not given), replicate column 3 of 3",15877
same,"Fluorescence competitive binding assay, OBP2 (raw fluorescence reading)","[1]; ligand concentration 18 (unit not given), replicate column 1 of 3",16375
same,"Fluorescence competitive binding assay, OBP2 (raw fluorescence reading)","[1]; ligand concentration 18 (unit not given), replicate column 2 of 3",13674
same,"Fluorescence competitive binding assay, OBP2 (raw fluorescence reading)","[1]; ligand concentration 18 (unit not given), replicate column 3 of 3",18894
same,"Fluorescence competitive binding assay, OBP2 (raw fluorescence reading)","[1]; ligand concentration 20 (unit not given), replicate column 1 of 3",16296
same,"Fluorescence competitive binding assay, OBP2 (raw fluorescence reading)","[1]; ligand concentration 20 (unit not given), replicate column 2 of 3",16765
same,"Fluorescence competitive binding assay, OBP2 (raw fluorescence reading)","[1]; ligand concentration 20 (unit not given), replicate column 3 of 3",17962
same,IC50,"[2]; SfurOBP11, protein and 1-NPN both 2.0 µM, competitor 2-20 µM, read-out: IC50",> 20 µM
same,"Fluorescence intensity, fluorescence competitive binding assay, OBP11","[2]; ligand concentration 2, replicate 1",31191
same,"Fluorescence intensity, fluorescence competitive binding assay, OBP11","[2]; ligand concentration 2, replicate 2",27026
same,"Fluorescence intensity, fluorescence competitive binding assay, OBP11","[2]; ligand concentration 2, replicate 3",27251
same,"Fluorescence intensity, fluorescence competitive binding assay, OBP11","[2]; ligand concentration 4, replicate 1",33062
same,"Fluorescence intensity, fluorescence competitive binding assay, OBP11","[2]; ligand concentration 4, replicate 2",32235
same,"Fluorescence intensity, fluorescence competitive binding assay, OBP11","[2]; ligand concentration 4, replicate 3",30749
same,"Fluorescence intensity, fluorescence competitive binding assay, OBP11","[2]; ligand concentration 6, replicate 1",33680
same,"Fluorescence intensity, fluorescence competitive binding assay, OBP11","[2]; ligand concentration 6, replicate 2",31560
same,"Fluorescence intensity, fluorescence competitive binding assay, OBP11","[2]; ligand concentration 6, replicate 3",31826
same,"Fluorescence intensity, fluorescence competitive binding assay, OBP11","[2]; ligand concentration 8, replicate 1",29344
same,"Fluorescence intensity, fluorescence competitive binding assay, OBP11","[2]; ligand concentration 8, replicate 2",31482
same,"Fluorescence intensity, fluorescence competitive binding assay, OBP11","[2]; ligand concentration 8, replicate 3",30513
same,"Fluorescence intensity, fluorescence competitive binding assay, OBP11","[2]; ligand concentration 10, replicate 1",29393
same,"Fluorescence intensity, fluorescence competitive binding assay, OBP11","[2]; ligand concentration 10, replicate 2",28581
same,"Fluorescence intensity, fluorescence competitive binding assay, OBP11","[2]; ligand concentration 10, replicate 3",27079
same,"Fluorescence intensity, fluorescence competitive binding assay, OBP11","[2]; ligand concentration 12, replicate 1",26945
same,"Fluorescence intensity, fluorescence competitive binding assay, OBP11","[2]; ligand concentration 12, replicate 2",26618
same,"Fluorescence intensity, fluorescence competitive binding assay, OBP11","[2]; ligand concentration 12, replicate 3",27193
same,"Fluorescence intensity, fluorescence competitive binding assay, OBP11","[2]; ligand concentration 14, replicate 1",24856
same,"Fluorescence intensity, fluorescence competitive binding assay, OBP11","[2]; ligand concentration 14, replicate 2",26161
same,"Fluorescence intensity, fluorescence competitive binding assay, OBP11","[2]; ligand concentration 14, replicate 3",27383
same,"Fluorescence intensity, fluorescence competitive binding assay, OBP11","[2]; ligand concentration 16, replicate 1",23278
same,"Fluorescence intensity, fluorescence competitive binding assay, OBP11","[2]; ligand concentration 16, replicate 2",23147
same,"Fluorescence intensity, fluorescence competitive binding assay, OBP11","[2]; ligand concentration 16, replicate 3",23455
same,"Fluorescence intensity, fluorescence competitive binding assay, OBP11","[2]; ligand concentration 18, replicate 1",27255
same,"Fluorescence intensity, fluorescence competitive binding assay, OBP11","[2]; ligand concentration 18, replicate 2",25416
same,"Fluorescence intensity, fluorescence competitive binding assay, OBP11","[2]; ligand concentration 18, replicate 3",25774
same,"Fluorescence intensity, fluorescence competitive binding assay, OBP11","[2]; ligand concentration 20, replicate 1",25007
same,"Fluorescence intensity, fluorescence competitive binding assay, OBP11","[2]; ligand concentration 20, replicate 2",22862
same,"Fluorescence intensity, fluorescence competitive binding assay, OBP11","[2]; ligand concentration 20, replicate 3",22028
same,"Fluorescence competitive binding assay, fluorescence intensity",[3]; ligand concentration 2 (μM),7802 and 7217 and 8367
same,"Fluorescence competitive binding assay, fluorescence intensity",[3]; ligand concentration 4 (μM),10256 and 8383 and 7448
same,"Fluorescence competitive binding assay, fluorescence intensity",[3]; ligand concentration 6 (μM),7755 and 7709 and 7657
same,"Fluorescence competitive binding assay, fluorescence intensity",[3]; ligand concentration 8 (μM),8353 and 6725 and 6896
same,"Fluorescence competitive binding assay, fluorescence intensity",[3]; ligand concentration 10 (μM),7309 and 7612 and 6541
same,"Fluorescence competitive binding assay, fluorescence intensity",[3]; ligand concentration 12 (μM),7182 and 6932 and 8389
same,"Fluorescence competitive binding assay, fluorescence intensity",[3]; ligand concentration 14 (μM),7695 and 6348 and 8106
same,"Fluorescence competitive binding assay, fluorescence intensity",[3]; ligand concentration 16 (μM),7645 and 7087 and 7719
same,"Fluorescence competitive binding assay, fluorescence intensity",[3]; ligand concentration 18 (μM),9286 and 8583 and 8604
same,"Fluorescence competitive binding assay, fluorescence intensity",[3]; ligand concentration 20 (μM),13401 and 7898 and 7495
same,IC50,"[3]; SfurOBP1, protein and 1-NPN both 2.0 µM, competitor 2-20 µM, read-out: IC50",> 20 µM
same,"Fluorescence competitive binding assay, fluorescence intensity",[4]; ligand concentration 2,61166 and 61638 and 64447
same,"Fluorescence competitive binding assay, fluorescence intensity",[4]; ligand concentration 4,63416 and 64552 and 59405
same,"Fluorescence competitive binding assay, fluorescence intensity",[4]; ligand concentration 6,55740 and 58561 and 59455
same,"Fluorescence competitive binding assay, fluorescence intensity",[4]; ligand concentration 8,58358 and 53959 and 58376
same,"Fluorescence competitive binding assay, fluorescence intensity",[4]; ligand concentration 10,51490 and 57535 and 53641
same,"Fluorescence competitive binding assay, fluorescence intensity",[4]; ligand concentration 12,51816 and 53317 and 52476
same,"Fluorescence competitive binding assay, fluorescence intensity",[4]; ligand concentration 14,50240 and 49815 and 48142
same,"Fluorescence competitive binding assay, fluorescence intensity",[4]; ligand concentration 16,46199 and 48600 and 42686
same,"Fluorescence competitive binding assay, fluorescence intensity",[4]; ligand concentration 18,47759 and 45050 and 48665
same,"Fluorescence competitive binding assay, fluorescence intensity",[4]; ligand concentration 20,47298 and 41425 and 41649
same,IC50,"[4]; SfurOBP3, protein and 1-NPN both 2.0 µM, competitor 2-20 µM, read-out: IC50",> 20 µM
same,number of insects choosing hexane arm,[5],12
same,number of insects choosing volatilies arm,[5],17
same,number of insects failed (no choice),[5],11
